In patent publication US20240216369A1, “THE USE OF A SPLICING MODULATOR FOR A TREATMENT SLOWING PROGRESSION OF HUNTINGTON'S DISEASE” (Novartis AG, priority 2019, published 2024):

Legend:
mHTT = test: Mutant and total HTT multiplex HTRF assay in Q48 HTT human embryonic stem cell line: mHTT; assay type: cell-based; conditions: Q48 HTT hESC, 48 hours
Method: (§1) The multiplex assay is performed in human embryonic stem cells (hESCs) which have been derived by Genea Biocells from human blastocysts of HD donors. Cells are plated at a density of 10,000 cells/well into 384-well collagen coated plates and left to adhere for 24 hours, compounds 1 to 82 are then added to cells and incubated for 48 hours (37° C., 5% CO2), cells are then lysed and the contents split into a black 384-well plate.
(§2) The black plates have a combination of HTRF labeled monoclonal antibodies added which recognize discrete areas of the HTT protein, the 2B7-Tb “donor” antibody (0.2 ng/well) recognizes a sequence at the N-terminus of the protein, an MW1-Alexa488 “acceptor 1” antibody (30 ng/well) recognizes an area in the polyQ region, whereas a MAB2166-d2 “acceptor 2” antibody (6 ng/well) recognizes a sequence beyond the polyQ region. The 2B7 antibody was obtained from Coriell (CH02024), the MW1 antibody from Millipore (MABN2427), and the MAB2166 antibody from Millipore (1HU-4C8).
(§3) These detection reagents are incubated with the cell lysate at room temperature for 4-6 hours before having their fluorescence quantified at 615 nm (donor) and 535 nm and 665 nm (acceptor 1 and 2 respectively). The donor/acceptor ratio between these signals indicates the relative quantities of mHTT and tHTT proteins. As shown in the Table 1, compounds 1 to 82 as described therein and in Table 2, had the following pIC50 values.

tHTT = test: Mutant and total HTT multiplex HTRF assay in Q48 HTT human embryonic stem cell line: tHTT; assay type: cell-based; conditions: Q48 HTT hESC, 48 hours
Method: as §1, §2, §3

| SMILES | Rating (based on mHTT potency) (mHTT) | mHTT pIC50 (mHTT) | tHTT pIC50 (tHTT) |
| --- | --- | --- | --- |
| Cc1nc2cc(O)c(-c3ccc(N(C)C4CC(C)(C)NC(C)(C)C4)nn3)cc2nc1C [Compound 42, 2,3-dimethyl-7-(6-(methyl(2,2,6,6-tetramethylpiperidin-4-yl)amino)pyridazin-3-yl)quinoxalin-6-ol] | *** (a pIC50 value between 6.5 and 7.0 is indicated by three stars (***)) | 6.92 | 6.885 |
| CNc1ccn(-c2ccc(-c3nnc(N(C)C4CC(C)(C)NC(C)(C)C4)s3)c(O)c2)n1 [Compound 43, 2-(5-(methyl(2,2,6,6-tetramethylpiperidin-4-yl)amino)-1,3,4-thiadiazol-2-yl)-5-(3-(methylamino)-1H-pyrazol-1-yl)phenol] | *** (a pIC50 value between 6.5 and 7.0 is indicated by three stars (***)) | 6.917 | 6.852 |
| CCN1CCC(c2cn3c(=O)cc(-c4ccc5nn(C)cc5c4)nc3c(C)n2)CC1 [Compound 44, 7-(1-ethylpiperidin-4-yl)-9-methyl-2-(2-methyl-2H-indazol-5-yl)-4H-pyrazino[1,2-a]pyrimidin-4-one] | *** (a pIC50 value between 6.5 and 7.0 is indicated by three stars (***)) | 6.869 | 6.7695 |
| CN(c1nnc(-c2c(F)cc(-c3cn[nH]c3)cc2F)s1)C1CC(C)(C)NC(C)(C)C1 [Compound 45, 5-(2,6-difluoro-4-(1H-pyrazol-4-yl)phenyl)-N-methyl-N-(2,2,6,6-tetramethylpiperidin-4-yl)-1,3,4-thiadiazol-2-amine] | *** (a pIC50 value between 6.5 and 7.0 is indicated by three stars (***)) | 6.861 | 6.7715 |
| Cc1cnc2cc(O)c(-c3ccc(N(C)C4CC(C)(C)NC(C)(C)C4)nn3)cc2n1 [Compound 46, 2-methyl-7-(6-(methyl(2,2,6,6-tetramethylpiperidin-4-yl)amino)pyridazin-3-yl)quinoxalin-6-ol] | *** (a pIC50 value between 6.5 and 7.0 is indicated by three stars (***)) | 6.8485 | 6.778 |
| Cc1ccc2cc(-c3ccc(N(C)C4CC(C)(C)NC(C)(C)C4)nn3)c(O)cc2n1 [Compound 47, 2-methyl-6-(6-(methyl(2,2,6,6-tetramethylpiperidin-4-yl)amino)pyridazin-3-yl)quinolin-7-ol] | *** (a pIC50 value between 6.5 and 7.0 is indicated by three stars (***)) | 6.8415 | 6.92 |
| CC1(C)CC(Nc2ccc(-c3cc4cc(C#N)ccc4s3)nn2)CC(C)(C)N1 [Compound 48, 2-(6-(2,2,6,6-tetramethylpiperidin-4-ylamino)pyridazin-3-yl)benzo[b]thiophene-5-carbonitrile] | *** (a pIC50 value between 6.5 and 7.0 is indicated by three stars (***)) | 6.822 | 6.9 |
| CN(c1nnc(-c2ccc(-c3ccn(C)c(=O)c3)cc2O)s1)C1CC(C)(C)NC(C)(C)C1 [Compound 49, 4-(3-hydroxy-4-(5-(methyl(2,2,6,6-tetramethylpiperidin-4-yl)amino)-1,3,4-thiadiazol-2-yl)phenyl)-1-methylpyridin-2(1H)-one] | *** (a pIC50 value between 6.5 and 7.0 is indicated by three stars (***)) | 6.819 | 6.6665 |
| COc1ccnc2cc(-c3ccc(N(C)C4CC(C)(C)NC(C)(C)C4)nn3)c(O)cc12 [Compound 50, 4-methoxy-7-(6-(methyl(2,2,6,6-tetramethylpiperidin-4-yl)amino)pyridazin-3-yl)quinolin-6-ol] | *** (a pIC50 value between 6.5 and 7.0 is indicated by three stars (***)) | 6.8055 | 6.7835 |
| CN(c1ccc(-c2cc3c(C(N)=O)nccc3cc2O)nn1)C1CC(C)(C)NC(C)(C)C1 [Compound 51, 6-hydroxy-7-(6-(methyl(2,2,6,6-tetramethylpiperidin-4-yl)amino)pyridazin-3-yl)isoquinoline-1-carboxamide] | *** (a pIC50 value between 6.5 and 7.0 is indicated by three stars (***)) | 6.801 | 6.779 |
| CN(c1ccc(-c2cc3ccncc3cc2O)nn1)C1CC(C)(C)NC(C)(C)C1 [Compound 52, 6-(6-(methyl(2,2,6,6-tetramethylpiperidin-4-yl)amino)pyridazin-3-yl)isoquinolin-7-ol] | *** (a pIC50 value between 6.5 and 7.0 is indicated by three stars (***)) | 6.7625 | 6.6455 |
| Cc1cc(C2CC2)c2cc(-c3ccc(N(C)C4CC(C)(C)NC(C)(C)C4)nn3)c(O)cc2n1 [Compound 53, 4-cyclopropyl-2-methyl-6-(6-(methyl(2,2,6,6-tetramethylpiperidin-4-yl)amino)pyridazin-3-yl)quinolin-7-ol] | *** (a pIC50 value between 6.5 and 7.0 is indicated by three stars (***)) | 6.746 | 6.7095 |
| Cc1nc2cc(-c3ccc(N(C)C4CC(C)(C)NC(C)(C)C4)nn3)c(O)cc2[nH]1 [Compound 54, 2-methyl-5-(6-(methyl(2,2,6,6-tetramethylpiperidin-4-yl)amino)pyridazin-3-yl)-1H-benzo[d]imidazol-6-ol] | *** (a pIC50 value between 6.5 and 7.0 is indicated by three stars (***)) | 6.728 | 6.753 |
| CN(c1ccc(-c2cc3c(=O)nc[nH]c3cc2O)nn1)C1CC(C)(C)NC(C)(C)C1 [Compound 55, 7-hydroxy-6-(6-(methyl(2,2,6,6-tetramethylpiperidin-4-yl)amino)pyridazin-3-yl)quinazolin-4(1H)-one] | *** (a pIC50 value between 6.5 and 7.0 is indicated by three stars (***)) | 6.71 | 6.7485 |
| CCc1cnc2cc(O)c(-c3ccc(N(C)C4CC(C)(C)NC(C)(C)C4)nn3)cc2c1 [Compound 56, 3-ethyl-6-(6-(methyl(2,2,6,6-tetramethylpiperidin-4-yl)amino)pyridazin-3-yl)quinolin-7-ol] | *** (a pIC50 value between 6.5 and 7.0 is indicated by three stars (***)) | 6.709 | 6.709 |
| COc1ccc2cc(-c3ccc(N(C)C4CC(C)(C)NC(C)(C)C4)nn3)c(O)cc2c1 [Compound 57, 7-methoxy-3-(6-(methyl(2,2,6,6-tetramethylpiperidin-4-yl)amino)pyridazin-3-yl)naphthalen-2-ol] | *** (a pIC50 value between 6.5 and 7.0 is indicated by three stars (***)) | 6.7085 | 6.791 |
| COc1cc(-c2cn[nH]c2)cc(O)c1-c1ccc(N(C)C2CC(C)(C)NC(C)(C)C2)nn1 [Compound 58, 3-methoxy-2-(6-(methyl(2,2,6,6-tetramethylpiperidin-4-yl)amino)pyridazin-3-yl)-5-(1H-pyrazol-4-yl)phenol] | *** (a pIC50 value between 6.5 and 7.0 is indicated by three stars (***)) | 6.698 | 6.6555 |
| Cc1nc(-c2ccc(-c3ccc(N(C)C4CC(C)(C)NC(C)(C)C4)nn3)c(O)c2)c[nH]1 [Compound 59, 2-(6-(methyl(2,2,6,6-tetramethylpiperidin-4-yl)amino)pyridazin-3-yl)-5-(2-methyl-1H-imidazol-4-yl)phenol] | *** (a pIC50 value between 6.5 and 7.0 is indicated by three stars (***)) | 6.678 | 6.5065 |
| Cc1ncc2cc(-c3ccc(N(C)C4CC(C)(C)NC(C)(C)C4)nn3)c(O)cc2n1 [Compound 60, 2-methyl-6-(6-(methyl(2,2,6,6-tetramethylpiperidin-4-yl)amino)pyridazin-3-yl)quinazolin-7-ol] | *** (a pIC50 value between 6.5 and 7.0 is indicated by three stars (***)) | 6.6725 | 6.7 |
| CN(c1ccc(-c2ccc(C3=CCNCC3)cc2O)nn1)C1CC(C)(C)NC(C)(C)C1 [Compound 61, 2-(6-(methyl(2,2,6,6-tetramethylpiperidin-4-yl)amino)pyridazin-3-yl)-5-(1,2,3,6-tetrahydropyridin-4-yl)phenol] | *** (a pIC50 value between 6.5 and 7.0 is indicated by three stars (***)) | 6.661 | 6.659 |
